Tests used:
HepG2 cells [1] = test: Effect of CGP37157 and KBR7943 on 4'I-MPP+-mediated mitochondrial membrane depolarization (TMRM); type: cell-based, human
Description: HepG2 cells grown in glass-bottomed plates for two days were treated with 50 μM CGP37157 or KBR7943 in KRB-HEPES for 30 min followed by 50 nM TMRM in KRB-HEPES for 45 min. Then plates were mounted on the stage of the microscope and mitochondrial membrane depolarization upon the treatment with 100 μM 4'I-MPP^+ was measured as a function of time as detailed above. The effect of CGP37157 on the 4'I-MPP^+ mediated mitochondrial membrane depolarization at longer time periods was monitored by observing the reduction of TMRM fluorescence from 0 to 4 h incubations in the presence or absence of CGP37157. HepG2 cells were incubated with or without 10 μM CGP37157 followed by 50 nM TMRM, and finally with 4'I-MPP^+ (100 μM, 0 or 4 h) and the intracellular TMRM fluorescence was recorded. Controls were carried out using an identical protocol except that either CGP37157 or 4'I-MPP^+ were omitted from the incubation media.

MN9D cells [2] = test: Protection of MN9D cells from MPP+ and 4'I-MPP+ toxicities (MTT); type: cell-based, mouse; conditions: 0–50 μM CGP37157 30 min, then 80 μM MPP+ or 25 μM 4'I-MPP+ for 8 h
Description: Cell viability was determined by the MTT [3-(4,5-dimethylthiazol-2-yl)-2,5-diphenyltetrazolium bromide)] assay. Briefly, cells were seeded on 96-well plates and allowed to grow to about 70–80% confluence. Prior to the experiment, culture media was replaced with KRB-HCO3^- containing desired concentrations of MPP^+ or 4'I-MPP^+ and incubated for 16 h at 37 °C. After the incubation, 10 μL of 5 mg/mL MTT solution was added to each well and incubated for 2 h at 37 °C. The resulting formazan was solubilized by the addition of 210 μL detergent solution [50% DMF/H2O (v/v), 20% SDS (w/v)] followed by incubation at 37 °C for 12 h. The cell viabilities were determined by quantifying solubilized formazan by measuring the difference in the absorbance at 570 nm and 650 nm. Results were expressed as % viability of MPP^+ or 4'I-MPP^+ treated cells with respect to control cells, which were treated under the same conditions except in the absence of the MPP^+ or 4'I-MPP^+.
Fig 7 CGP37157 protect MN9D cells from MPP^+ and 4'I-MPP^+ toxicities. Cells were pre-incubated with 0–50 μM CGP37157 for 30 min followed by 80 μM MPP^+ or 25 μM 4'I-MPP^+ for 8 h. The relative cell viabilities were determiner using MTT assay, as detailed above. Data are presented as mean ± SD (n = 6). ٭p<0.0001 and #p<0.005 versus no CGP37157 controls.

[3] = system: isolated intact MN9D mitochondria; test: Effects of Ca2+ and inhibitors on MN9D mitochondrial uptake of 4'I-MPP+; design: species or system mouse; conditions: for 4'I-MPP+ uptake inhibition: 200 μM 4'I-MPP+
Description: Intact MN9D cell mitochondria were incubated with 200 μM 4'I-MPP^+ for 45 min at 37 °C in 0, 500 or 1000 nM Ca^2+ containing KCl buffer. When mNCX inhibitors (KBR7943, 2APB and CGP37157) were used, mitochondrial suspensions were initially incubated with 10, 25 or 50 μM inhibitor in KCl buffer for 10 min at 37 °C and then with 200 μM 4'I- MPP^+ for 45 min at 37 °C. After the incubations, samples were centrifuged at 7,000 x g at 4 °C for 10 min and the mitochondrial pellets were treated with 75 μL of 0.1 M HClO4. […] To visualize the effect of CGP37157 on the mitochondrial uptake of 4'I-MPP^+ in live cells, HepG2 cells grown in glass-bottomed plates were incubated with 50 μM CGP37157 for 30 min initially and then with 100 μM 4'I-MPP^+ and 200 nM MitoTracker Green FM in KRB-HEPES for 1 h at 37 °C. After incubation cells were washed and reconstituted with KRB-HEPES, pH 7.4 and 4'I-MPP^+ and MitoTracker Green FM fluorescence images of cells were recorded as detailed above. Controls were treated under the same experimental conditions, except that CGP37157 was omitted from the initial incubation.
S4 Fig. Effects of Benzamil, Verapamil, FFA, and ruthenium red on the MN9D mitochondrial uptake of 4'I-MPP+. MN9D mitochondrial suspensions were initially incubated with a 50 μM concentration of the desired agent (10 μM Ruthenium red) in KCl buffer for 10 min at 37 °C and then incubated with 200 μM 4'I-MPP+ for 45 min at 37 °C. After the incubations, the […] 4'I-MPP+ contents were quantified by RP-HPLC-UV as described in Material and methods. The data are represented as mean ± S.D (n=3).
(also on this page, place not known: contol 10uM Ru red BenzamilVerapamil FFA 4I' MPP+ uptake (nmoles/mg) 0.0 0.1 0.2 0.3 0.4 0.5)
(1 picture or pasted object on this page, not shown here)

MN9D cells [4] = conditions: 5 μM FCCP 30 min, then 50 μM toxin 45 min
Description: (§1) Cells grown in 12-well plates were washed and incubated with 5 μM FCCP in KRB-HEPES for 30 min followed by 50 μM MPP^+ or 4'I-MPP^+ in the same buffer for 45 min at 37 °C. After the incubations, cells were washed with ice-cold KRB-HEPES and treated with 0.1 M HClO4. The intracellular MPP^+ or 4'I-MPP^+ contents of HClO4 extracts were quantified by HPLC-UV as detailed above. The controls were treated under the same conditions except that FCCP was omitted from the initial incubation. All uptake data were normalized to the respective protein concentration of each sample. To visualize the effect of FCCP on the mitochondrial accumulation of 4'I-MPP^+, cells were grown in glass bottomed plates and incubated with 5 μM FCCP in KRB-HEPES for 30 min followed by 100 μM 4'I-MPP^+ for 1 h at 37 °C. Then cells were washed and reconstituted with 1 mL of KRB-HEPES and the intracellular 4'I-MPP^+ fluorescence (Ex/Em 340/470-550 nm) were recorded.

HepG2 cells [5] = conditions: 5 μM FCCP 30 min, then 50 μM toxin 45 min; in comparison to MN9D cells
Description: as §1

Row | SMILES | effect on 4'I-MPP+-induced mitochondrial membrane depolarization, longer incubation (HepG2 cells [1]; 10 μM CGP37157, 100 μM 4'I-MPP+, lasting at least 4 h) | effect on 4'I-MPP+ mitochondrial membrane depolarization (HepG2 cells [1]; 50 μM pre-treatment 30 min, 100 μM 4'I-MPP+) | protection from MPP+ and 4'I-MPP+ toxicities (MN9D cells [2]) | 4'I-MPP+ uptake inhibition ([3]; 10 μM inhibitor) | 4'I-MPP+ uptake inhibition ([3]; 25 μM inhibitor) | effect on uptake of 4'I-MPP+ ([3]; 50 μM inhibitor at 200 μM 4'I-MPP+) | effect on cellular accumulation of MPP+ and 4'I-MPP+ (MN9D cells [4]) | effect on cellular accumulation of MPP+ and 4'I-MPP+ (HepG2 cells [5])
1 | O=C1CSC(c2ccccc2Cl)c2cc(Cl)ccc2N1 (centres unmarked) [CGP37157] | slows down | significantly reduced | effectively protects | about 40% | ~ 45% | inhibit the uptake |  | 
2 | N#CC(C#N)=NNc1ccc(OC(F)(F)F)cc1 [FCCP, carbonyl cyanide-p-trifluoromethoxyphenylhydrazone] |  |  |  |  |  |  | significantly decreased | stronger effect
